This is an account of results in US12187742B2 (XRAD Therapeutics, Inc., priority 2018, dated 2025).

Counter-ions that a name gives are not always drawn.

Experiment [1] concerns the target ATM (Homo sapiens (Human), UniProt Q13315). Description: ATM in Cell Western Assay (pKAP1 in etoposide-treated MCF-7 cells). The conditions noted are these: MCF-7 cells, etoposide 100 μM, 1 hr, pKAP1 readout. The experiment is classed as cell-based. The essentials:
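Cells received compounds in a 10-dose, 3-fold series from a 1 μM final top concentration, then 100 μM etoposide, for 1 hr at 37° C. They were then fixed with paraformaldehyde and permeabilized with 0.1% Triton X-100. After immunostaining, plates were scanned on an infrared imager.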

For experiment [2], the target named is DNA-PK (Homo sapiens (Human), UniProt P78527). The experiment in a line: DNA-PK Enzyme-Linked Immunosorbent Assay (phosphorylation of GST-p53 (1-101) peptide). The class given is biochemical. The conditions noted are these: ELISA, ATP 20 μM. The essentials:
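ELISA with plate-bound GST-p53 (1-101) phosphorylated by DNA-PK (0.1 μg/mL final) with 20 μM ATP for 1 h at 25 °C. Compounds tested over 10 3-fold doses from 100 nM top final. Phospho-p53 Ser15 detected by antibody, HRP and TMB, absorbance at 450 nm.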

Chain of ATM (Q13315 whole entry): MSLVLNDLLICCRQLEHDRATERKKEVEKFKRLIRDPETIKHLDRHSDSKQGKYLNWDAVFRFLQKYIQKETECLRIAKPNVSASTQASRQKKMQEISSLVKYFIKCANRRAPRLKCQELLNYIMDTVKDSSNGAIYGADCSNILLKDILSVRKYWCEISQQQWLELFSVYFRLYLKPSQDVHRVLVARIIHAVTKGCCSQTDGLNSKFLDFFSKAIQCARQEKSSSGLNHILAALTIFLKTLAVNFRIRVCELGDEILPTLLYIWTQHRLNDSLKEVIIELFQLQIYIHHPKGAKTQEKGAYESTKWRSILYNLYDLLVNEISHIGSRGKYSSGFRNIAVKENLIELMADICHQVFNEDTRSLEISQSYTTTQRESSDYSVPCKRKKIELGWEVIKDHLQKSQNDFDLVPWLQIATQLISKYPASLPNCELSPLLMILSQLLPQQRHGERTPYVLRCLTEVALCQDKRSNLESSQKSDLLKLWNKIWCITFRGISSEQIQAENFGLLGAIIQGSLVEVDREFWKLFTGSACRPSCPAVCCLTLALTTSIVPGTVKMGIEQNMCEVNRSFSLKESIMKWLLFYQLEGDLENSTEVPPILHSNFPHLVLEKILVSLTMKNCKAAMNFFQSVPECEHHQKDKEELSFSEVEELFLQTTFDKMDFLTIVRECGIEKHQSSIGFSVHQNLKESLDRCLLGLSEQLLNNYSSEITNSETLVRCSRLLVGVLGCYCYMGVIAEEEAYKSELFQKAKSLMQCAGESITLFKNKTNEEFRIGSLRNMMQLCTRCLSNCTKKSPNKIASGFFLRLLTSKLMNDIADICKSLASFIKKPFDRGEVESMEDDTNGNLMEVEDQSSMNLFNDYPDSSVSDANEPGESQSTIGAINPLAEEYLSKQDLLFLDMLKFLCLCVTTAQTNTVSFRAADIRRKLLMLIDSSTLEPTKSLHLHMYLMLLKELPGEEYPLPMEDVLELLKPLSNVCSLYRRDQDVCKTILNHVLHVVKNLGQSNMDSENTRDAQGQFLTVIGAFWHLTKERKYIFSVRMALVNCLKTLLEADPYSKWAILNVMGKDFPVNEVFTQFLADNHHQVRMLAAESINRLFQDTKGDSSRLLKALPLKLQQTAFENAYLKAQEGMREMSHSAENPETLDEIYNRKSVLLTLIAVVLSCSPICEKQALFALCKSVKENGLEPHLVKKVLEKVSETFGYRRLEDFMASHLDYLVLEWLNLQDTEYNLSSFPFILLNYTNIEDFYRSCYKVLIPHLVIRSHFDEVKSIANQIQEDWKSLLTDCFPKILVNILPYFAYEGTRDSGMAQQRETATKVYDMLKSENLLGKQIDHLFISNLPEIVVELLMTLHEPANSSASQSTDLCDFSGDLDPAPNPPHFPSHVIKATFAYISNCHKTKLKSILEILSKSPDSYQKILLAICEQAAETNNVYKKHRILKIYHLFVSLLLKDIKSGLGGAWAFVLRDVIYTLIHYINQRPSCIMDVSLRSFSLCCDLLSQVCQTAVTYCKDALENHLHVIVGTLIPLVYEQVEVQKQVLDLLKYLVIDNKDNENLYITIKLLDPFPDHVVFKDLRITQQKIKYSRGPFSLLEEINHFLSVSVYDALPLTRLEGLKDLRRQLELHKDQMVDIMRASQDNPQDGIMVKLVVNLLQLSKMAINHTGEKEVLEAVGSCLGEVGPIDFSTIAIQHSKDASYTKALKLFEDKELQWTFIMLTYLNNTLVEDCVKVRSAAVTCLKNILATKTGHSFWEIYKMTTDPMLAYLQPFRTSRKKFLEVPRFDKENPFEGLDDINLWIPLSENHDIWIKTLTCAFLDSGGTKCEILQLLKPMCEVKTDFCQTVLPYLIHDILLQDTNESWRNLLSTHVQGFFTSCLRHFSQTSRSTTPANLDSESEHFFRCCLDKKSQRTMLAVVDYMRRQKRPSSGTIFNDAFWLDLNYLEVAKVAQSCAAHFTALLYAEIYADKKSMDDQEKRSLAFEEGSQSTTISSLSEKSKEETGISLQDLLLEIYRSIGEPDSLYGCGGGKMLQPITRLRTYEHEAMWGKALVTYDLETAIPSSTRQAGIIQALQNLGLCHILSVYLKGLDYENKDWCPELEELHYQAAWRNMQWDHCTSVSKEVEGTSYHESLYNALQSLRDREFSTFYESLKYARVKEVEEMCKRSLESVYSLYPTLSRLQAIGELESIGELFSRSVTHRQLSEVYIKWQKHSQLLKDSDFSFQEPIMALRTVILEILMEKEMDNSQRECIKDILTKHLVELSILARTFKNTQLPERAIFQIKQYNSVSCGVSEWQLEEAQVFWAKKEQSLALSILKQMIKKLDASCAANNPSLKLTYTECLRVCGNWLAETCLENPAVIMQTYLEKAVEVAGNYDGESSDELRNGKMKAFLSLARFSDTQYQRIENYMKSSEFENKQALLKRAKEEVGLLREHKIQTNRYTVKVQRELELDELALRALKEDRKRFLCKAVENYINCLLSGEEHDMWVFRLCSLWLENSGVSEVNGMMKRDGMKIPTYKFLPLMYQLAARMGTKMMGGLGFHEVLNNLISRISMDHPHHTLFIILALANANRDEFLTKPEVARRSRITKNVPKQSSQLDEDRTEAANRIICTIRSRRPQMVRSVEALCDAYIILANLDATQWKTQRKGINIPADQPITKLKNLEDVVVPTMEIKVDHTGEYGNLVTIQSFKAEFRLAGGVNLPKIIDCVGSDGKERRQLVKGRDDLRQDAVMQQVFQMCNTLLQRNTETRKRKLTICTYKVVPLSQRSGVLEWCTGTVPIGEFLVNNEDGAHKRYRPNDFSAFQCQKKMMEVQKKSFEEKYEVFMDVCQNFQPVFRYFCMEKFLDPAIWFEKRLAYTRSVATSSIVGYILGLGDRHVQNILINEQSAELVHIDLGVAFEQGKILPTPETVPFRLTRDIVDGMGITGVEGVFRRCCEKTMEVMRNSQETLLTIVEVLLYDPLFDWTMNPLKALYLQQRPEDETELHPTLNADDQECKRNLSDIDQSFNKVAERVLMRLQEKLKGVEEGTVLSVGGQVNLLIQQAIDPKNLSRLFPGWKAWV

With `CN(C)CCCOc1ncc(-c2ccc3ncc4c(c3c2)C2(CC2)C(=O)N4C)cc1NS(=O)(=O)c1ccc(Cl)cc1` [Example 128, 4-Chloro-N-(2-(3-(dimethylamino)propoxy)-5-(3′-methyl-2′-oxo-2′,3′-dihydrospiro[cyclopropane-1,1′-pyrrolo[2,3-c]quinolin]-8′-yl)pyridin-3-yl)benzenesulfonamide hydrochloride], the IC50 (as a rule, the concentration that gives 50% inhibition) was 1 to 100 nM in experiment [1] and less than 0.5 nM in experiment [2].

`CN(C)CCCOc1ncc(-c2cc3c4c(cnc3cc2F)N(C)C(=O)C42CC2)cc1NS(=O)(=O)c1ccc(Cl)cc1` [Example 129, 4-Chloro-N-(2-(3-(dimethylamino)propoxy)-5-(7′-fluoro-3′-methyl-2′-oxo-2′,3′-dihydrospiro[cyclopropane-1,1′-pyrrolo[2,3-c]quinolin]-8′-yl)pyridin-3-yl) benzenesulfonamide hydrochloride]: the IC50 in experiment [1] and in experiment [2] was 1 to 100 nM in each case.

Turning to `CN(C)CCCOc1ncc(-c2ccc3ncc4c(c3c2)C2(CCC2)C(=O)N4C)cc1NS(=O)(=O)c1cncc(Cl)c1` [Example 130, 5-Chloro-N-(2-(3-(dimethylamino)propoxy)-5-(3′-methyl-2′-oxo-2′,3′-dihydrospiro[cyclobulane-1,1′-pyrrolo[2,3-c]quinolin]-8′-yl)pyridin-3-ylpyridine-3-sulfonamide hydrochloride], the 50% inhibitory concentration (IC50) in experiment [1] and in experiment [2] was 1 to 100 nM throughout.

As for `CN1C(=O)C2(CCC2)c2c1cnc1ccc(-c3cnc(OCCCN4CCOCC4)c(NS(=O)(=O)c4ccccc4)c3)cc21` [Example 131, N-(5-(3′-Methyl-2′-oxo-2′,3′-dihydrospiro[cyclobulane-1,1′-pyrrolo[2,3-c]quinolin]-8′-yl)-2-(3-morpholinopropoxy)pyridin-3-yl)benzenesulfonamide hydrochloride], the IC50 in experiment [1] and in experiment [2] was 1 to 100 nM throughout.

`CN1C(=O)C2(CCC2)c2c1cnc1ccc(-c3cnc(OCCCN4CCCCC4)c(NS(=O)(=O)c4ccccc4)c3)cc21` [Example 132, N-(5-(3′-Methyl-2′-oxo-2′,3′-dihydrospiro[cyclobulane-1,1′-pyrrolo[2,3-c]quinolin]-8′-yl)-2-(3-(piperidin-1-yl)propoxy)pyridin-3-yl)benzenesulfonamide hydrochloride]: the concentration for half-maximal inhibition (IC50) in experiment [1] and in experiment [2] was 1 to 100 nM in each case.

Take `COc1ccc(S(=O)(=O)Nc2cc(-c3ccc4ncc5c(c4c3)C3(CCC3)C(=O)N5C)cnc2OCCCN(C)C)cn1` [Example 133, N-(2-(3-(Dimethylamino)propoxy)-5-(3′-methyl-2′-oxo-2′,3′-dihydrospiro[cyclobulane-l.1′-pyrrolo[2,3-c]quinolin]-8′-yl)pyridin-3-yl)-6-methoxypyridine-3-sulfonamide hydrochloride]: the IC50 lay in the range of 1 to 100 nM in experiment [1] and 0.5 to 1 nM in experiment [2].

On to `CN(C)CCCOc1ncc(-c2ccc3ncc4c(c3c2)C2(CCC2)C(=O)N4C)cc1NS(=O)(=O)c1ccc(S(F)(F)(F)(F)F)cc1` [Example 134, N-(2-(3-(Dimethylamino)propoxy)-5-(3′-methyl-2′-oxo-2′,3′-dihydrospiro[cyclobulane-1,1′-pyrrolo[2,3-c]quinolin]-8′-yl)pyridin-3-yl)-4-(pentafluoro-16-sulfaneyl) benzenesulfonamide], for which the IC50 in experiment [1] and in experiment [2] was 1 to 100 nM throughout.

Consider `CN(C)CCCOc1ncc(-c2ccc3ncc4c(c3c2)C2(CCC2)C(=O)N4C)cc1NS(=O)(=O)N1CCOCC1` [Example 136, N-(2-(3-(Dimethylamino)propoxy)-5-(3′-methyl-2′-oxo-2′,3′-dihydrospiro [cyclobutane-1,1′-pyrrolo[2,3-c]quinolin]-8′-yl)pyridin-3-yl)morpholine-4-sulfonamide hydrochloride], for which the concentration for half-maximal inhibition (IC50) in experiment [1] and in experiment [2] was 1 to 100 nM in each case.

With `Cc1ccc(S(=O)(=O)Nc2cc(-c3ccc4ncc5c(c4c3)C3(CCC3)C(=O)N5C)cnc2OCCCN(C)C)cn1` [Example 137, N-(2-(3-(Dimethylamino)propoxy)-5-(3′-methyl-2′-oxo-2′,3′-dihydrospiro[cyclobutane-1,1′-pyrrolo[2,3-c]quinolin]-8′-yl)pyridin-3-yl)-6-methylpyridine-3-sulfonamide hydrochloride], the concentration for half-maximal inhibition (IC50) in experiment [1] and in experiment [2] was 1 to 100 nM throughout.

`CN(C)CCCOc1ncc(-c2ccc3ncc4c(c3c2)C2(CCC2)C(=O)N4C)cc1NS(=O)(=O)c1cncc(C(F)(F)F)c1` [Example 141, N-(2-(3-(Dimethylamino)propoxy)-5-(3′-methyl-2′-oxo-2′,3′-dihydrospiro[cyclobulane-1,1′-pyrrolo[2,3-c]quinolin]-8′-yl)pyridin-3-yl)-5-(trifluoromethyl)pyridine-3-sulfonamide hydrochloride]: the figures for the IC50 in experiment [1] and in experiment [2] were 1 to 100 nM and greater than 100 nM, respectively.

For `Cc1ccc(S(=O)(=O)Nc2cc(-c3ccc4ncc5c(c4c3)C3(CCC3)C(=O)N5C)cnc2OCCCN2CCCCC2)cn1` [Example 142, 6-Methyl-N-(5-(3 methyl-2′-oxo-2′,3′-dihydrospiro[cyclobulane-1,1′-pyrrolo[2,3-c]quinolin]-8′-yl)-2-(3-(piperidin-1-yl)propoxy)pyridin-3-yl)pyridine-3-sulfonamide hydrochloride], the IC50 in experiment [1] was 1 to 100 nM; in experiment [2], less than 0.5 nM.

Turning to `COc1ccc(S(=O)(=O)Nc2cc(-c3ccc4ncc5c(c4c3)C3(CCC3)C(=O)N5C)cnc2OCCCN(C)C)cc1` [Example 144, N-(2-(3-(Dimethylamino)propoxy)-5-(3′-methyl-2′-oxo-2′,3′-dihydrospiro [cyclobutane-1,1′-pyrrolo[2,3-c]quinolin]-8′-yl)pyridin-3-yl)-4-methoxybenzenesulfonamide hydrochloride], the IC50 in experiment [1] and in experiment [2] was 1 to 100 nM each time.

Regarding `Cc1ccc(S(=O)(=O)Nc2cc(-c3ccc4ncc5c(c4c3)C3(CCC3)C(=O)N5C)cnc2OCCCN(C)C)cc1` [Example 145, N-(2-(3-(Dimethylamino)propoxy)-5-(3′-methyl-2′-oxo-2′,3′-dihydrospiro [cyclobulane-1,1′-pyrrolo[2,3-c]quinolin]-8′-yl)pyridin-3-yl)-4-methylbenzenesulfonamide hydrochloride], the 50% inhibitory concentration (IC50) in experiment [1] was in the range of 1 to 100 nM; in experiment [2] it was 0.5 to 1 nM.

Take `CN(C)CCCOc1ncc(-c2ccc3ncc4c(c3c2)C2(CCC2)C(=O)N4C)cc1NS(=O)(=O)c1ccc(C(F)(F)F)nc1` [Example 146, N-(2-(3-(Dimethylamino)propoxy)-5-(3′-methyl-2′-oxo-2′,3′-dihydrospiro [cyclobulane-1,1′-pyrrolo[2,3-c]quinolin]-8′-yl)pyridin-3-yl)-6-(trifluoromethyl)pyridine-3-sulfonamide hydrochloride]: the concentration for half-maximal inhibition (IC50) in experiment [1] and in experiment [2] was 1 to 100 nM each time.

In the case of `CN(C)CCCOc1ncc(-c2ccc3ncc4c(c3c2)C2(CCC2)C(=O)N4C)cc1NS(=O)(=O)c1ccc(C#N)nc1` [Example 147, 6-Cyano-N-(2-(3-(dimethylamino)propoxy)-5-(3′-methyl-2′-oxo-2′,3′-dihydrospiro[cyclobulane-1,1′-pyrrolo[2,3-c]quinolin]-8′-yl)pyridin-3-ylpyridine-3-sulfonamide hydrochloride], the IC50 in experiment [1] was in the range of 1 to 100 nM; in experiment [2], 0.5 to 1 nM.

As for `CN(C)CCCOc1ncc(-c2ccc3ncc4c(c3c2)C2(CCC2)C(=O)N4C)cc1NS(=O)(=O)c1ccccn1` [Example 148, N-(2-(3-(Dimethylamino)propoxy)-5-(3′-methyl-2-oxo-2′,3′-dihydrospiro[cyclobulane-1,1′-pyrrolo[2,3-c]quinolin]-8′-yl)pyridin-3-yl)pyridine-2-sulfonamide hydrochloride], the half-inhibitory concentration (IC50) in experiment [1] and in experiment [2] was 1 to 100 nM in each case.

On to `CN(C)CCCOc1ncc(-c2ccc3ncc4c(c3c2)C2(CCC2)C(=O)N4C)cc1NS(=O)(=O)N(C)C` [Example 149, 8′-{6-[3-(Dimethylamino)propoxy]-5-[(dimethylsulfamoyl)amino]pyridine-3-yl}-3′-methyl-2′,3′-dihydrospiro[cyclobutane-1,1′-pyrrolo[2,3-c]quinoline]-2′-one hydrochloride], for which the IC50 in experiment [1] was less than 0.5 nM; in experiment [2] it was 0.5 to 1 nM.

Consider `CN(C)CCCOc1ncc(-c2ccc3ncc4c(c3c2)C2(CCC2)C(=O)N4C)cc1NS(=O)(=O)c1cccc(C(F)(F)F)c1` [Example 150, N-(2-(3-(Dimethylamino)propoxy)-5-(3′-methyl-2′-oxo-2′,3′-dihydrospiro[cyclobutane-1,1′-pyrrolo[2,3-c]quinolin]-8′-yl)pyridin-3-yl)-3-(trifluoromethyl)benzenesulfonamide], for which the IC50 in experiment [1] and in experiment [2] was 1 to 100 nM in each case.

Take `CN(C)CCCOc1ncc(-c2ccc3ncc4c(c3c2)C2(CCC2)C(=O)N4C)cc1NS(=O)(=O)c1cc(F)cc(F)c1` [Example 153, N-(2-(3-(Dimethylamino)propoxy)-5-(3′-methyl-2′-oxo-23′-dihydrospiro[cyclobutane-1,1′-pyrrolo[2,3-c]quinolin]-8′-yl)pyridin-3-yl)-3,5-difluorobenzenesulfonamide]: the IC50 in experiment [1] fell in the range of 1 to 100 nM; in experiment [2], 0.5 to 1 nM.

Turning to `CN(C)CCCOc1ncc(-c2ccc3ncc4c(c3c2)C2(CCC2)C(=O)N4C)cc1NS(=O)(=O)c1cc(Cl)cc(C(F)(F)F)c1` [Example 154, 3-Chloro-N-(2-(3-(dimethylamino)propoxy)-5-(3′-methyl-2′-oxo-2′,3′-dihydrospiro[cyclobutane-1,1′-pyrrolo[2,3-c]quinolin]-8′-yl)pyridin-3-yl)-5-(trifluoromethyl)benzenesulfonamide hydrochloride], the IC50 in experiment [1] and in experiment [2] was 1 to 100 nM each time.
